The values that follow come from article PMC9664070, “The anticonvulsant phytocannabinoids CBGVA and CBDVA inhibit recombinant T-type channels” (Frontiers in Pharmacology, 2022).

Each structure is given as a SMILES string.

Common to all, as to assay: FLIPR calcium 5 assay, inhibition of 10 mM Ca-induced fluorescence
Holding throughout (type): cell-based

In one assay the target is T1, Cav3.1 (Homo sapiens, UniProt O43497).
T1 construct: expressed in transfected cells; host or cells: HEK293 Flp-In T-REx
T1 sequence (O43497 whole entry): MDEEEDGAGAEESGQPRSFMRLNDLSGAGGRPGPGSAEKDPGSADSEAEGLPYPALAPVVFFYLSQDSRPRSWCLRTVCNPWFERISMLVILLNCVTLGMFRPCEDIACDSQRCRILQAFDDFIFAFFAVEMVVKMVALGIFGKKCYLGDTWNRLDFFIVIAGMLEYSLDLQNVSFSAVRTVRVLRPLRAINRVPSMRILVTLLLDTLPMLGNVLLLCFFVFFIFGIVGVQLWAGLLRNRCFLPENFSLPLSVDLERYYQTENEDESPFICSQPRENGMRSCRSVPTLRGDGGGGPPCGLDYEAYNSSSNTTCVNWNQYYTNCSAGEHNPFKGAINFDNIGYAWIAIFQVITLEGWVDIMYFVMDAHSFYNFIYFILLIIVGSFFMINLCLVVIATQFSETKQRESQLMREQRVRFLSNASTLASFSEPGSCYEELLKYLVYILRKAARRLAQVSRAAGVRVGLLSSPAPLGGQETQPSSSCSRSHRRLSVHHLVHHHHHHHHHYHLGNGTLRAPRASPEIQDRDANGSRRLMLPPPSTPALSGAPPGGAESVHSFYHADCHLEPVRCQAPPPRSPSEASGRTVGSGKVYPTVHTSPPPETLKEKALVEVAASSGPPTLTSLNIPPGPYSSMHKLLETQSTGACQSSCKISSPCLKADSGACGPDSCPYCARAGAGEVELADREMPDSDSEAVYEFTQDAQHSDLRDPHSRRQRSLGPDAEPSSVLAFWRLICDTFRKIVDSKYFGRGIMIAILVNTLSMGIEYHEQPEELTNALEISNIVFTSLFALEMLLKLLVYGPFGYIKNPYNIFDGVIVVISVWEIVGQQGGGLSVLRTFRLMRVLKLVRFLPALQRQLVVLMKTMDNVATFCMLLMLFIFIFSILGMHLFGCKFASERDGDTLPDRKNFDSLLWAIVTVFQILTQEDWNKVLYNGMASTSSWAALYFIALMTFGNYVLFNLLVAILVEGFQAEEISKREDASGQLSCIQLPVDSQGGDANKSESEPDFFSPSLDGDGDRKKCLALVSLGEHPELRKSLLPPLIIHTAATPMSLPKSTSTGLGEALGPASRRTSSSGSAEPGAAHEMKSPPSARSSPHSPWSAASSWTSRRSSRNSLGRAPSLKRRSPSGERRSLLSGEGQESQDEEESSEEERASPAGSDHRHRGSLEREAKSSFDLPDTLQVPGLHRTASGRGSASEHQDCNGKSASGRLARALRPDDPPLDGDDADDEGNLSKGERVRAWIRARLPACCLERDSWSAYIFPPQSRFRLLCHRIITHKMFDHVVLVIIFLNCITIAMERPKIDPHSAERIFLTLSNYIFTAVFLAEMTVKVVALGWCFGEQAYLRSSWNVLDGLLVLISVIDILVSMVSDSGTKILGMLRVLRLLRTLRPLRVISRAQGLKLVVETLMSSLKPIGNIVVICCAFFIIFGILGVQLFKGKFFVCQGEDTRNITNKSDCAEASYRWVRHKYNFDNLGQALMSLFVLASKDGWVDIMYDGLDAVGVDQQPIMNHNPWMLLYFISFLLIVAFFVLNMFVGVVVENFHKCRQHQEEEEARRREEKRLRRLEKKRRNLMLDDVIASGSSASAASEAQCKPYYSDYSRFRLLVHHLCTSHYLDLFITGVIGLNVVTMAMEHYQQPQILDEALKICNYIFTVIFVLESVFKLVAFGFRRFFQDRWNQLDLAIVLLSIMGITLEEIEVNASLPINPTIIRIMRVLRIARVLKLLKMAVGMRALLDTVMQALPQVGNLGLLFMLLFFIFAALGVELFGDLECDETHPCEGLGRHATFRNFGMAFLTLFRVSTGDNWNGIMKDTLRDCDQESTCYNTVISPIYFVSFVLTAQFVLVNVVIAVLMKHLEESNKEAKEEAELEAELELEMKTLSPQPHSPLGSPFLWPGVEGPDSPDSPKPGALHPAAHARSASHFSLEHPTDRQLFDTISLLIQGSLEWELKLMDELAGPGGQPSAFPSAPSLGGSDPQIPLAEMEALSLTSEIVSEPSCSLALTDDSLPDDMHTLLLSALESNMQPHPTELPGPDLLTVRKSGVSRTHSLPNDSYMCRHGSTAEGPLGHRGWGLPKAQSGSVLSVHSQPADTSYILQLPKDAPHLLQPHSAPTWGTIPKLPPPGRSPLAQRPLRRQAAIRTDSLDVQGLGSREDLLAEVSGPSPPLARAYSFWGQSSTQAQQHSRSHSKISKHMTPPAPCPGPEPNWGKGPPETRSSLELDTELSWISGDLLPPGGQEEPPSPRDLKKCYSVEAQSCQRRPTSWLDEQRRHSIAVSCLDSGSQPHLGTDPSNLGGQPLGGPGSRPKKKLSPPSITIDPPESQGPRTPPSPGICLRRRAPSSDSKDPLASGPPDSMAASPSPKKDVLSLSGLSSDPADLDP
Particulars: FLIPR concentration-response, HEK293 Cav3.1 cells; read-out: IC50, inhibition of change in fluorescence, Cav3.1. The protocol: (§1) Calcium 5 dye (Molecular Devices, United States ) was used to investigate compound activities at T-type calcium channels using Flexstation III. HEK293 cells overexpressing Cav3.1, Cav 3.2, and Cav 3.3 cells were resuspended in Leibovitz’s L-15 media containing 1% FBS, 1% P/S and 15 mM glucose. 90 µl of the resuspended cells (120,000 cells/well) were plated in a black-walled, 96-well microplate (Corning, NY, United States ) and incubated overnight in humidified air at 37°C. Channel expression was induced with tetracycline (2 μg/ml, Sigma-Aldrich) at plating. On the day of the assay, 90 µl of HBSS containing 5% Calcium dye (bulk kit) and 2.5 mM probenecid (Invitrogen, United States ) was added to each well and incubated for 1 h at 37°C. Change in fluorescence was measured in a FlexStation III plate reader every 2 s (ʎexcitation = 485 nm, ʎemission = 525 nm) for the duration of the experiment at 37°C. After 2 min baseline recording, drugs (20 µL) were added and read for 5 min, followed by 10 mM CaCl2 (20 µl) and read for a further 3 min.
(§2) Unless otherwise stated, five independent experiments were performed for each condition, with each experiment conducted in duplicate. For the calcium assay, change in fluorescence by 10 mM Ca in the presence of drugs was normalised to change in fluorescence caused by 10 mM Ca in the presence of vehicle only to allow for comparison. In the Alphascreen assay, results were normalised to EC80 of ML-186 after subtraction of basal ERK phosphorylation (presence of a vehicle and 0.2% DMSO) to allow for easy comparison between phytocannabinoid activities. We fitted all concentration-response curves to a 4-parameter sigmoidal inhibitory response curve in GraphPad Prism (Version 6 GraphPad Software Inc., CA, United States) to derive IC50 and Emax values. All statistical analyses were conducted with GraphPad Prism. Two-tailed, unpaired t-tests were used to compare two data points and one-way ANOVA for more than two data points with Tukey post-hoc analysis. p-values < 0.05 were considered statistically significant.
(§3) Our investigation of T-type channels began with a single-point screen, as described by [Bladen et al. (2021)]. We screened the inhibitory effect of 10 µM phytocannabinoids on the change in fluorescence elicited by the addition of 10 mM Ca^2+ in cells expressing Cav3.1, Cav3.2 or Cav3.3 channels ([Xie et al., 2007]; [Bladen et al., 2021]).

The target of another assay is T2, Cav3.2 (Homo sapiens, UniProt O95180).
T2 construct: expressed in transfected cells; host or cells: HEK293 Flp-In T-REx
The settings on record: FLIPR concentration-response, HEK293 Cav3.2 cells; read-out: IC50, inhibition of change in fluorescence, Cav3.2. How it is done: as §1, §2, §3

Another assay has as its target T3, Cav3.3 (Homo sapiens, UniProt Q9P0X4).
T3 construct: expressed in transfected cells; host or cells: HEK293 Flp-In T-REx
Particulars: 10 µM compound, HEK293 cells, mean ± SEM. How it is done:
as §1, §2, §3

T3 sequence (Q9P0X4 whole entry): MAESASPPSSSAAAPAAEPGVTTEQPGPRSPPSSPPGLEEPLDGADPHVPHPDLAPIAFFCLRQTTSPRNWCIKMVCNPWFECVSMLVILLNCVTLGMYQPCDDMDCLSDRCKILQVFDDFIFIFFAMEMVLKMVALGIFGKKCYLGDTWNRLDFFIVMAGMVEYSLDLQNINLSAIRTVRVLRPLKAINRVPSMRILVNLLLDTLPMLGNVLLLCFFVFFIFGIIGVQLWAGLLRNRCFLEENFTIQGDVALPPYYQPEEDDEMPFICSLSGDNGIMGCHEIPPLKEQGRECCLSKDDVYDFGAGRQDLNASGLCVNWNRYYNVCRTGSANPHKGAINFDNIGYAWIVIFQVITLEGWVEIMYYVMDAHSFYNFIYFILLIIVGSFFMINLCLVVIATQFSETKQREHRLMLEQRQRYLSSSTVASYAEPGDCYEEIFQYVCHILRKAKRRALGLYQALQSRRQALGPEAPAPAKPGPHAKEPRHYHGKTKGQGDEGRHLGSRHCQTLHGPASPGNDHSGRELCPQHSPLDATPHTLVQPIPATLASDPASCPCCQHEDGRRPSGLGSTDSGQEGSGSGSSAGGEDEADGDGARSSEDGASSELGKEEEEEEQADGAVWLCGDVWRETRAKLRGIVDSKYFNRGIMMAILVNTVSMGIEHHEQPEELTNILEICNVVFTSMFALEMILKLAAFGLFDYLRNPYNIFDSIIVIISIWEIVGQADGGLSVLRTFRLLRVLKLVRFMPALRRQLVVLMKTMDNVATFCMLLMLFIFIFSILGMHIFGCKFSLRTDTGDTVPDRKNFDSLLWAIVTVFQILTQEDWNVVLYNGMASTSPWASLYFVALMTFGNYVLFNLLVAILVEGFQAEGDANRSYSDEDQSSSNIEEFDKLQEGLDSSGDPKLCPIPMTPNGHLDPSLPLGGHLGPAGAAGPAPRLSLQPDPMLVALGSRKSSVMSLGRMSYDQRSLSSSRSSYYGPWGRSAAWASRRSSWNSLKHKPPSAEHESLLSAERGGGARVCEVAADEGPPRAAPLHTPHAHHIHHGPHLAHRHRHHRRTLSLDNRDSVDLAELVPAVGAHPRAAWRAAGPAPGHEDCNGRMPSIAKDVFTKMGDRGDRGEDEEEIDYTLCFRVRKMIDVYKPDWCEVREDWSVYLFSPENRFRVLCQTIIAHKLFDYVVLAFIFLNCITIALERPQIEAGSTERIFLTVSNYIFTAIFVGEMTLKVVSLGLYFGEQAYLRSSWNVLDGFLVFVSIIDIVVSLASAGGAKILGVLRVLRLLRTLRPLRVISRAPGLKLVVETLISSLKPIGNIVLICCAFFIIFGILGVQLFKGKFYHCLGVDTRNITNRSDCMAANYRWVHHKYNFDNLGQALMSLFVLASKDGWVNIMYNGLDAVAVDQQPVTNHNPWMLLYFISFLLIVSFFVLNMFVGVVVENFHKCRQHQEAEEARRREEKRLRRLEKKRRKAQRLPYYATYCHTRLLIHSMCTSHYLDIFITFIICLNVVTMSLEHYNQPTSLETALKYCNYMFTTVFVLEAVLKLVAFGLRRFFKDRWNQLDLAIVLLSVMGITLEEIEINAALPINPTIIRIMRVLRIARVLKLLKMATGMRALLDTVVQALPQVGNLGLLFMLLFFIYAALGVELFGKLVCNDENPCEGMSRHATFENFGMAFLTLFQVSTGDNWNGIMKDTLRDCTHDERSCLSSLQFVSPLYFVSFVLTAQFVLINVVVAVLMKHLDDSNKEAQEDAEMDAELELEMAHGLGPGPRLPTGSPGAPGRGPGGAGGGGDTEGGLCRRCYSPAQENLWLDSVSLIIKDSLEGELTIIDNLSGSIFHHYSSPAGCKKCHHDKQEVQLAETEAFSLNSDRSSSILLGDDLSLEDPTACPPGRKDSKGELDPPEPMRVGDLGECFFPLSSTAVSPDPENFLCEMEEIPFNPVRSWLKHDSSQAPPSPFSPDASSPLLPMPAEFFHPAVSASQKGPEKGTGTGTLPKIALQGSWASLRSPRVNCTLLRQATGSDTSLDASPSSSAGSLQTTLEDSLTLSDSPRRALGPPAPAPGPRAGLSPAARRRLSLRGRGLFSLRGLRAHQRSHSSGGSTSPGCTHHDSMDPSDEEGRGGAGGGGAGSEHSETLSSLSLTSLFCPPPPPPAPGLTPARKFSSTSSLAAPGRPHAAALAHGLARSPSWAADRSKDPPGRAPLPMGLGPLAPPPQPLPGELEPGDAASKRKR

As usually defined, the IC50 is the concentration that inhibits the measured activity by half. Regarding `C=C(C)[C@@H]1CCC(C)=C[C@H]1c1c(O)cc(CCC)c(C(=O)O)c1O` [CBDVA, cannabidivarinic acid], the values for the IC50 at Cav3.1 and at Cav3.2 were 2 µM and 11 µM, respectively. Further, the “% Inhibition of Fluorescence Cav3.3” value on Cav3.3 is given as 8 ± 4%.
